Source: PubChem BioAssay AID588471 (The Scripps Research Institute Molecular Screening Center, 2011)

Tests used:
Test in all cases: PubChem AID 588471; call rule not given here
[1] = biological target: Protein-arginine deiminase type-2 (Homo sapiens) (UniProt Q9Y2J8); conditions: recombinant PAD1-4, BAEE citrulline colorimetric absorbance; PAD2
[2] = biological target: Protein-arginine deiminase type-4 (Homo sapiens) (UniProt Q9UM07); conditions: recombinant PAD1-4, BAEE citrulline colorimetric absorbance; PAD4
[3] = biological target: Protein-arginine deiminase type-3 (Homo sapiens) (UniProt Q9ULW8); conditions: recombinant PAD1-4, BAEE citrulline colorimetric absorbance; PAD3
[4] = biological target: Protein-arginine deiminase type-1 (Homo sapiens) (UniProt Q9ULC6); conditions: recombinant PAD1-4, BAEE citrulline colorimetric absorbance; PAD1

Measured: IC50

Sequence of Protein-arginine deiminase type-2 (Homo sapiens) (Q9Y2J8 whole entry, looked up): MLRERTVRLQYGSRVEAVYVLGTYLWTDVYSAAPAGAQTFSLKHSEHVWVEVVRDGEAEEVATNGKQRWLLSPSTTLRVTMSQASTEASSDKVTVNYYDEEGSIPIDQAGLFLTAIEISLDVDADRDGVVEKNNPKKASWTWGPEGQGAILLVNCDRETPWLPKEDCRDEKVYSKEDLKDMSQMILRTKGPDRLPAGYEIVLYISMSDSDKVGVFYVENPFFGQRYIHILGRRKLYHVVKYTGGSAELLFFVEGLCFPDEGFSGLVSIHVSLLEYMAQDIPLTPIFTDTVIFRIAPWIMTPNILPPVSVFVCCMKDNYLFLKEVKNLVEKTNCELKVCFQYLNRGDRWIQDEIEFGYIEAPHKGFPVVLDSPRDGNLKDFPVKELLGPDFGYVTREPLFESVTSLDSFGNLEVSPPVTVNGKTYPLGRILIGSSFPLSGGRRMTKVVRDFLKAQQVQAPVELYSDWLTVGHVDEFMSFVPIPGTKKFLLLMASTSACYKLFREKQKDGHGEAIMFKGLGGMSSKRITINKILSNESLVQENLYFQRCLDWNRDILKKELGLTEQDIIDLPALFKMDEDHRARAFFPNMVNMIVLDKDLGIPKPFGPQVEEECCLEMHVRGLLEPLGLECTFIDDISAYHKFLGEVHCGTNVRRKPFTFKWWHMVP
Sequence of Protein-arginine deiminase type-1 (Homo sapiens) (Q9ULC6 whole entry, looked up): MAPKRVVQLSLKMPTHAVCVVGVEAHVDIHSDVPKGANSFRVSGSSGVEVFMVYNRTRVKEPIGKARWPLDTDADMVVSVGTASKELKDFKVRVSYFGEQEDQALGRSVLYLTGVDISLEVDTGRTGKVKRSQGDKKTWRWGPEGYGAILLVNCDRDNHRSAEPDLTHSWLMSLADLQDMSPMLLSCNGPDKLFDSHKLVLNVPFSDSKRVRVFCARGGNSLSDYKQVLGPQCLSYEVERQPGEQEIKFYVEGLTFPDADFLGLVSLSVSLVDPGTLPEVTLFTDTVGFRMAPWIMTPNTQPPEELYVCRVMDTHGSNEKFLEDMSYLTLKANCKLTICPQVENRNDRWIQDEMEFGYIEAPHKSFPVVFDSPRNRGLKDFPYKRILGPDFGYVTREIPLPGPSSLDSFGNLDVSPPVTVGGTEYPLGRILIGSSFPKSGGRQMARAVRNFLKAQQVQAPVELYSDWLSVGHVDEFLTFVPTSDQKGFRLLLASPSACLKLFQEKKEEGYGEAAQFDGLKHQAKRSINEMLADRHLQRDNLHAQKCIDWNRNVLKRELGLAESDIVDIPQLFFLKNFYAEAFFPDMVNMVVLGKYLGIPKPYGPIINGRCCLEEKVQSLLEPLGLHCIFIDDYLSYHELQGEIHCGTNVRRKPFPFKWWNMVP
Sequence of Protein-arginine deiminase type-3 (Homo sapiens) (Q9ULW8 whole entry, looked up): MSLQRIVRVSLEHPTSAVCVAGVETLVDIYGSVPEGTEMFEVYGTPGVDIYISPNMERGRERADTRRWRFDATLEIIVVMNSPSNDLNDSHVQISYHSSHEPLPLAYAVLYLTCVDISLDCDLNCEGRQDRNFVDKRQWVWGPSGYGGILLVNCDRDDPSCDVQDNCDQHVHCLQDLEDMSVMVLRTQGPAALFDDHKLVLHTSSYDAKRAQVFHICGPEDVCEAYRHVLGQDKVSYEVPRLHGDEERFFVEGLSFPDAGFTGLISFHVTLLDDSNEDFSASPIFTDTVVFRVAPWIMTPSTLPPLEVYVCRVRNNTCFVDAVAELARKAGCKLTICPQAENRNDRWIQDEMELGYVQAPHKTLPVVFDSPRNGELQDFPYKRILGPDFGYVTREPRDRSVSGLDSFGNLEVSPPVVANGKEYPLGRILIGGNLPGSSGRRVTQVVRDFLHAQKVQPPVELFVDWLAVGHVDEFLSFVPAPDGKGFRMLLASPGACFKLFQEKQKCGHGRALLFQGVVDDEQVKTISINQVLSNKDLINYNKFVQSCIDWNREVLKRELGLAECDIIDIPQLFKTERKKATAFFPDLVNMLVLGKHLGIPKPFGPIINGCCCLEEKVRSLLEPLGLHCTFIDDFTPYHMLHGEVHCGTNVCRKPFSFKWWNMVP
Sequence of Protein-arginine deiminase type-4 (Homo sapiens) (Q9UM07 whole entry, looked up): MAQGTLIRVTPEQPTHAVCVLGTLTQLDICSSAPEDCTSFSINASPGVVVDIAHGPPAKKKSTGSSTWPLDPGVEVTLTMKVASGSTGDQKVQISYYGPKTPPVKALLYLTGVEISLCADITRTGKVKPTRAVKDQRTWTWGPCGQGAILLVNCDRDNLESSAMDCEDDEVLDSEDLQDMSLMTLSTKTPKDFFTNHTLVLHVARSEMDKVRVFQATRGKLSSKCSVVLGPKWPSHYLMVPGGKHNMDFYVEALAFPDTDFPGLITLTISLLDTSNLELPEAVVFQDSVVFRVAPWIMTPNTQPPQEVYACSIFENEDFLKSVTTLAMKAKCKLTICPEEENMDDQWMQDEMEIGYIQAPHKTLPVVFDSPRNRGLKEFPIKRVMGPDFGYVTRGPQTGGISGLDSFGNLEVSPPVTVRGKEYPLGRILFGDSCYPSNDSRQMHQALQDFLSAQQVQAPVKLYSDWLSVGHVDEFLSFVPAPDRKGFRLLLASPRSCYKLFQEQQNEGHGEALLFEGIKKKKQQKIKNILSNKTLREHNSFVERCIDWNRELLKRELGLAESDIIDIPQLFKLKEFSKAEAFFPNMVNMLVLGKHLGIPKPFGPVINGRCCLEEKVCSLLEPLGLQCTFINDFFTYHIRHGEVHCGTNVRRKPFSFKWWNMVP

NC1=CC(=O)c2ccc(-c3ccccn3)nc2C1=O
active: [1] 320 nM | [2] 640 nM | [3] 130 nM | [4] 950 nM
